# Measurements published in patent publication US20210024756A1, “STABILIZED COPPER GLASS” (CORNING INCORPORATED, priority 2018, published 2021).
# System: E. coli
# Test: Minimum Inhibition Concentration, bacterial recovery grading
# Format: cell-based
# Set-up: key: −: No bacterial recovery.; +: Trace of contamination (<10colonies).; ++: Light contamination (>100 colonies).; +++: Heavy contamination (continuous smear of growth)
# Conditions: E. coli OD 0.441, 2.68 × 10^8 cell/mL
substance,measurement,setting,value
thiourea [Thiourea Ctrl],Bacterial growth (Minimum Inhibition Concentration),0.0001 ppm (mg/L),+++
same,Bacterial growth (Minimum Inhibition Concentration),0.001 ppm (mg/L),+++
same,Bacterial growth (Minimum Inhibition Concentration),0.01 ppm (mg/L),+++
same,Bacterial growth (Minimum Inhibition Concentration),0.1 ppm (mg/L),+++
same,Bacterial growth (Minimum Inhibition Concentration),1 ppm (mg/L),+++
same,Bacterial growth (Minimum Inhibition Concentration),10 ppm (mg/L),+++
same,Bacterial growth (Minimum Inhibition Concentration),100 ppm (mg/L),+++
same,Bacterial growth (Minimum Inhibition Concentration),1000 ppm (mg/L),+++
same,Bacterial growth (Minimum Inhibition Concentration),10000 ppm (mg/L),+++
same,Bacterial growth (Minimum Inhibition Concentration),100000 ppm (mg/L),+++
same,Bacterial growth (Minimum Inhibition Concentration),1000000 ppm (mg/L),−
